Measurements from patent US5707998A, “Nitrogen-containing fused-heterocycle compounds” (Eisai Co., Ltd., priority 1993, dated 1998).
pIC50: −log10 of the molar value. Where a name gives a salt, the structure may show the parent alone.

What follows are compounds tested against T1, cGMP-PDE prepared from porcine aorta (Sus scrofa, UniProt A0A287B475) (assay: Inhibitory Activity Against cGMP-PDE Prepared from Porcine Aorta). Settings: CaM-independent cGMP-PDE fraction; 1 μM cGMP substrate; 1 mM EGTA; DMSO 4% or below.
T1 construct: Porcine aorta was cut into small pieces; from tissue; host or cells: porcine aorta, 100,000 x g supernatant, DEAE-Toyopearl 650S fraction
Assay type: biochemical
Protocol: Inhibitory Activity Against cGMP-PDE Prepared from Porcine Aorta The enzymatic activity of cGMP-PDE prepared from porcine aorta was determined by the method of Thompson et al. This determination was conducted in the presence of 1 mM EGTA by the use of 1 μM cGMP as the substrate. The compound of the present invention was added to the reaction system in a state dissolved in DMSO to determine its inhibitory activity. The final DMSO concentration of the reaction system was adjusted to 4% or below. The above cGMP-PDE was prepared as follows: Porcine aorta was cut into small pieces, followed by the addition of 10 times (by volume) as much buffer A [comprising Tris/HCl (20 mM), magnesium acetate (2 mM), dithiothreitol (1 mM), EDTA (5 mM), aprotinin (1400TIU/l),leupeptin (10 mg/l), benzamidine (1 mM) and PMSF (0.2 mM) and having a pH of 7.5]. The resulting mixture was homogenated and centrifuged at 100,000×g for one hour. The obtained supernatant was adsorbed on a column packed with DEAE-Toyopearl 650S (Tosoh, Tokyo, Japan). The resulting column was washed with buffer B [comprising Tris/HCl (50 mM), EGTA (0.1 mM), magnesium acetate (2 mM), dithiothreitol (1 mM) and PMSF (0.2 mM) and having a pH of 7.5] and thereafter subjected to gradient elution with 0.05 to 0.4M sodium chloride to give a CaM-independent cGMP-PDE fraction. The compounds of the present invention were examined for cGMP-PDE inhibitory activity by the above method and the results are given in Table 1.
A pIC50 of 6.83 was found for `CCOC(=O)C1CCN(c2nc(NCc3ccc4c(c3)OCO4)c3cc(N(C)C)ccc3n2)CC1` [Example 7, 2-(4-Ethoxycarbonylpiperidino)-4-(3,4-methylenedioxybenzyl)amino-6-dimethylaminoquinazoline] in this work.
A pIC50 of 6.92 was found for `CN(C)c1ccc2nc(Cl)nc(NCc3ccc4c(c3)OCO4)c2c1` [Example 2, 2-Chloro-4-(3,4-methylenedioxybenzyl)amino-6-dimethylaminoquinazoline] in this work.
A pIC50 of 7.48 was found for `Clc1nc(NCc2ccc3c(c2)OCO3)c2cc(-n3ccnc3Cl)ccc2n1` [Example 5, 2-Chloro-4-(3,4-methylenedioxybenzyl)amino-6-(2-chloroimidazol-1-yl)quinazoline] in this work.
A pIC50 of 5.91 was found for `Clc1nc(NCc2ccc3c(c2)OCO3)c2cc(N3CCCCC3)ccc2n1` [Example 4, 2-Chloro-4-(3,4-methylenedioxybenzyl)amino-6-piperidinoquinazoline] in this work.
A pIC50 of 5.95 was found for `CCOC(=O)C1CCN(c2nc(NCc3ccc4c(c3)OCO4)c3cc(N)ccc3n2)CC1` [Example 12, 2-(4-Ethoxycarbonylpiperidino)-4-(3,4-methylenedioxybenzyl)amino-6-aminoquinazoline dihydrochloride] in this work.
A pIC50 of 8.83 was found for `O=C(O)C1CCN(c2nc(NCc3ccc4c(c3)OCO4)c3cc(-n4cccn4)ccc3n2)CC1` [Example 9, 2-(4-Carboxypiperidino)-4-(3,4-methylenedioxybenzyl)amino-6-(pyrazol-1-yl)quinazoline] in this work.
A pIC50 of 8.28 was found for `O=[N+]([O-])c1ccc2nc(Cl)nc(NCc3ccc4c(c3)OCO4)c2c1` [Example 3, 2-Chloro-4-(3,4-methylenedioxybenzyl)amino-6-nitroquinazoline] in this work.
A pIC50 of 7.73 was found for `CN(C)c1ccc2nc(N3CCC(C(=O)O)CC3)nc(NCc3ccc4c(c3)OCO4)c2c1` [Example 10, 2-(4-Carboxypiperidino)-4-(3,4-methylenedioxybenzyl)amino-6-dimethylaminoquinazoline] in this work.
A pIC50 of 6.44 was found for `c1nc(NCc2ccc3c(c2)OCO3)c2cc(-n3cncn3)ccc2n1` [Example 15, 4-(3,4-Methylenedioxybenzyl)amino-6-(1,2,4-triazol-1-yl)quinazoline] in this work.
A pIC50 of 8.09 was found for `CCOC(=O)C1CCN(c2nc(NCc3ccc4c(c3)OCO4)c3cc(-n4cccn4)ccc3n2)CC1` [Example 6, 2-(4-Ethoxycarbonylpiperidino)-4-(3,4-methylenedioxybenzyl)amino-6-(pyrazol-1-yl)quinazoline hydrochloride] in this work.
A pIC50 of 8.46 was found for `CCOC(=O)C1CCN(c2nc(NCc3ccc4c(c3)OCO4)c3cc([N+](=O)[O-])ccc3n2)CC1` [Example 8, 2-(4-Ethoxycarbonylpiperidino)-4-(3,4-methylenedioxybenzyl)amino-6-dimethylnitroquinazoline] in this work.
A pIC50 of 6.14 was found for `c1cn(-c2ccc3ncnc(NCc4ccc5c(c4)OCO5)c3c2)cn1` [Example 14, 4-(3,4-Methylenedioxybenzyl)amino-6-(imidazol-1-yl)quinazoline] in this work.
A pIC50 of 8.14 was found for `O=C(O)C1CCN(c2nc(NCc3ccc4c(c3)OCO4)c3cc(-c4nnn[nH]4)ccc3n2)CC1` [Example 13] in this work.
A pIC50 of 9.12 was found for `O=C(O)C1CCN(c2nc(NCc3ccc4c(c3)OCO4)c3cc([N+](=O)[O-])ccc3n2)CC1` [Example 11, 2-(4-Carboxypiperidino)-4-(3,4-methylenedioxybenzyl)amino-6-nitroquinazolin] in this work.
A pIC50 of 8.00 was found for `Clc1nc(NCc2ccc3c(c2)OCO3)c2cc(-n3cccn3)ccc2n1` [Example 1, 2-Chloro-4-(3,4-methylenedioxybenzyl)amino-6-(pyrazol-1-yl)quinazoline] in this work.
A pIC50 of 6.39 was found for `COc1ccc(CNc2ncnc3ccc(-n4cnc(C)c4)cc23)cc1Cl` [Example 17, 4-(3-Chloro-4-methoxybenzyl)amino-6-(4-methylimidazol-1-yl)quinazoline] in this work.
